Literature values as cited in patent US12290506B2, “Compositions and formulations for use of a PK inhibitor for the prevention, treatment, and improvement of skin diseases, conditions, and disorders” (DermBiont, Inc., priority 2022, dated 2025).

Tested on: UV induced neo-melanogenesis
Settings: topical application, guinea pig model

With bisindolylmaleimide as the substance, how does the UV induced neo-melanogenesis read?
Its UV induced neo-melanogenesis is “inhibit UV induced neo-melanogenesis”.
